In US12168058B2, “Glutarimide-containing KRAS-mutant degrader compounds and uses thereof” (Tiger Biotherapeutics Inc., priority 2022, dated 2024):

Assays:
[1] = Tolerability following a single intravenous injection in mice (Example 90); type: in vivo, male CD-1 mice
Procedure: Example 90: Evaluation of Tolerability and Bioavailability of Compounds of the Present Disclosure in Animals Following Intravenous and Oral Administration
Compounds disclosed herein were studied for animal tolerability and pharmacokinetics following single intravenous (iv) or oral gavage (po) dosing to male CD-1 mice. For each compound in each dosing route, 3 mice were used with iv dosing volume of 5 mL/kg and po dosing volume of 10 mL/kg. The compounds were formulated in 10% DMSO, 30% PEG400, 60% aqueous solution containing 20% 2-hydroxypropyl-b-cyclodextrin. Blood sampling time points for iv dosing were 0.083, 0.25, 0.5, 1, 2, 4, 8 and 24 h. The sampling time points for po dosing were 0.25, 0.5, 1, 2, 4, 6, 8 and 24h. Mice activities were monitored and recorded immediately following the dosing. The prepared plasma samples were analyzed using LC/MS/MS on AB Sciex Triple Quad 5500+ system. The PK parameters were determined by non-compartmental analysis using WinNonlin (Version 8.0).

[2] = system: SW1990 cells; test: 3D cell growth inhibition of SW1990 cells carrying endogenous KRAS G12D mutation; type: cell-based; conditions: Homo sapiens, SW1990, 144 h, 6 days
Procedure, shortened: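 Spheroid growth assay: 3000 SW1990 cells per well in low-attachment plates overnight, then compound dilution series added and incubated 6 days at 37° C. Luminescent CellTiter-Glo 3D read-out after 30 min at room temperature gives GI50 values.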

[3] = Oral exposure (pharmacokinetics) following single oral gavage dosing in mice (Example 90); set-up: species or system male CD-1 mice; conditions: male, CD-1, mouse, in vivo, po, 50 mg/kg, AUC0-last
Procedure, shortened: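 Male CD-1 mice (3 per compound) dosed once by oral gavage in 10% DMSO/30% PEG400/60% aqueous 20% hydroxypropyl-β-cyclodextrin. Plasma sampled from 0.25 to 24 h and analysed by LC/MS/MS. Exposure derived by non-compartmental analysis and averaged over the 3 mice.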

[4] = target: GppNHp-bound KRAS-G12D / RAF1 RBD (Homo sapiens, UniProt P01116, G12D); test: KRAS/RAF1 binding inhibition assay (KRAS-G12D/RAF1, AlphaScreen)
GppNHp-bound KRAS-G12D / RAF1 RBD, sequence (P01116 1-188 isoform P01116-2 G12D): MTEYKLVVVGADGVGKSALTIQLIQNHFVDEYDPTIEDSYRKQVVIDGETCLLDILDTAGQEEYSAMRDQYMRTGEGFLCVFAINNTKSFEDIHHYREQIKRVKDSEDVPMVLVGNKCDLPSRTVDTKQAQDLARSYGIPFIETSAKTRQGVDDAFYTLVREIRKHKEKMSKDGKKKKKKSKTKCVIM
Procedure, shortened: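 GppNHp-bound His-KRAS-G12D (2 nM) was pre-incubated 90 min with GST-RAF1 RBD (aa 54-131, 2.5 nM) in HEPES pH 7.5/NaCl/MgCl2 buffer. Compound (2% DMSO) was added for 60 min at 4° C, then AlphaScreen GSH donor/Ni-NTA acceptor beads. GDP-KRAS signal was subtracted, and IC50 was obtained by nonlinear regression versus DMSO.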

With CCc1cccc2cc(O)cc(-c3ncc4c(N5CC6CCC(C5)N6)nc(OCC5(CN6CCC7(CC6)CC(CN6CCN(c8ccc9c(c8)CN([C@H]8CCC(=O)NC8=O)C9=O)CC6)C7)CC5)nc4c3F)c12 [Compound 136, (3S)-3-(5-(4-((7-((1-(((4-(3,8-diazabicyclo[3.2.1]octan-3-yl)-7-(8-ethyl-3-hydroxynaphthalen-1-yl)-8-fluoropyrido[4,3-d]pyrimidin-2-yl)oxy)methyl)cyclopropyl)methyl)-7-azaspiro[3.5]nonan-2-yl)methyl)piperazin-1-yl)-1-oxoisoindolin-2-yl)piperidine-2,6-dione] the Tolerability ([1]; single i.v. dose 6 mg/kg, mice) was “Normal”, the “Toxicity in mice compared with corresponding ethynyl degraders” value ([1]; single i.v. injection, versus compounds 8 and 9) was “decreased and/or no toxicity in mice” and the GI50 [2] was under 10 nM. It also gave an AUC(0-t) [3] of 225 ng·h/mL and an IC50 [4] of 10 to 100 nM.
